Laboratory results from US6962713B2, “Spot-on formulations for combating parasites” (Merial, priority 1919, dated 2005).
Several values for one entry are separate records, joined by “and”; a condition that tells them apart may be missing. Equal values may be shown once.

How the values were obtained:
heartworms = conditions: Cardomec oral, 6 μg.kg^−1 of ivermectin, dog; known; cited from earlier work
[1] = ivermectin, cited from earlier work
[2] = Plasma kinetics of ivermectin after spot-on application 250 μg.kg^−1 in combination with fipronil to cats; assay type: in vivo, cat; conditions: spot-on 0.25% ivermectin + 10% fipronil, 5 cats
Description: This study was undertaken in order to assess the pharmacokinetic behaviour of ivermectin after a topical (spot-on) application of a formulation containing 0.25% of ivermectin and 10% of fipronil to the cat. The formulation was as follows: […]
Five male european cats were treed with the spot-on formulation at a dose of 0.1 ml.kg^−1 (i.e. 250 μg.kg^−1 of ivermectin and 10 mg.kg^−1 of fipronil).
Blood samples were collected at intervals up to 42 days post-treatment.
The determination of ivermectin in cat plasma was carried out by a validated HPLC method using fluorescence detection, with a limit of quantification of 100 pg.ml^−1.

[3] = Plasma kinetics of ivermectin after subcutaneous injection of Ivomec to dogs; assay type: in vivo, dog; conditions: for Plasma concentrations of ivermectin / Plasma concentrations of ivermectin, Mean: Ivomec subcutaneous 400 μg.kg^−1, dogs; for Plasma concentrations of ivermectin: individual dogs
Description: This study was conducted in order to assess the pharmacokinetics of ivemectin in the dog after subcutaneous administration of Ivomec® at a dose of 400 μg.kg^−1 of ivermectin which is known to be effective on gastrointestinal nematodes and to have a route of reference for further development.
Five male Beagle dogs were injected a subcutaneous dose of 400 μg.kg^−1 of ivermectin. Blood samples were collected at intervals up to 56 days post-dosing. The determination of ivermectin in dog plasma was carried out by HPLC, using fluorescence detection after derivatization. The limit of quantification was 100 pg.ml^−1.

[4] = Ivomec subcutaneous 400 μg.kg^−1, 5 dogs, mean

Substance: ivermectin
- effective on heartworms (heartworms): 100%
- tmax, literature data ([1]; food state of dogs not specified): 2 to 4 h
- AUC, mean literature values [1]: 107.318 ng·h/mL
- Cmax, mean literature values [1]: more than 2000 pg. ml^−1
- t1/2 β, Mean ([2]; 250 μg.kg^−1 ivermectin, harmonic mean): 9.1 d and 9.07* d
- AUC (0-Clast), Mean ([2]; 250 μg.kg^−1 ivermectin, mean): 23441 pg·days/mL
- AUC(0-∞), Mean ([2]; 250 μg.kg^−1 ivermectin, mean): 26546 pg·days/mL
- Tlast, Mean ([2]; 250 μg.kg^−1 ivermectin, mean): 35 days
- tmax, Mean ([2]; 250 μg.kg^−1 ivermectin, mean): 134 h
- AUC(0-∞), Range ([2]; 250 μg.kg^−1 ivermectin, range over cats): [14199-52232] pg.d.ml^−1
- Cmax, Mean ([2]; 0.1 ml.kg^−1 (250 μg.kg^−1 ivermectin), mean): 1.465 ng/mL
- AUC(0-t), Mean [3, 4]: 226900 pg·days/mL
- AUC(0-∞), Mean [3, 4]: 227897 pg·days/mL
- Cmax, Mean [3, 4]: 28.935 ng/mL and ~30 ng/mL
- Plasma concentrations of ivermectin [3]; 0: BLQ (The limit of quantification was 100 pg.ml^−1)
- Plasma concentrations of ivermectin, Mean ([3]; 0, mean of 5 dogs): BLQ (The limit of quantification was 100 pg.ml^−1)
- Plasma concentrations of ivermectin ([3]; 0.25 h): 275 pg.ml^−1 and BLQ (The limit of quantification was 100 pg.ml^−1) (2×) and 158 pg.ml^−1 and 1123 pg.ml^−1
- Plasma concentrations of ivermectin, Mean ([3]; 0.25 h, mean of 5 dogs (BLQ taken as 0)): 0.311 ng/mL
- Plasma concentrations of ivermectin ([3]; 0.5 h): 531 pg.ml^−1 and BLQ (The limit of quantification was 100 pg.ml^−1) (2×) and 183 pg.ml^−1 and 1757 pg.ml^−1
- Plasma concentrations of ivermectin, Mean ([3]; 0.5 h, mean of 5 dogs (BLQ taken as 0)): 0.494 ng/mL
- Plasma concentrations of ivermectin ([3]; 1 h): 952 pg.ml^−1 and BLQ (The limit of quantification was 100 pg.ml^−1) and 272 pg.ml^−1 and 1487 pg.ml^−1 and 257 pg.ml^−1
- Plasma concentrations of ivermectin, Mean ([3]; 1 h, mean of 5 dogs (BLQ taken as 0)): 0.594 ng/mL
- Plasma concentrations of ivermectin ([3]; 4 h): 3148 pg/mL and 935 pg/mL and 2519 pg/mL and 2788 pg/mL and 1621 pg/mL
- Plasma concentrations of ivermectin, Mean ([3]; 4 h, mean of 5 dogs): 2.202 ng/mL
- Plasma concentrations of ivermectin ([3]; 10 h): 9438 pg/mL and 2799 pg/mL and 7471 pg/mL and 6881 pg/mL and 2322 pg/mL
- Plasma concentrations of ivermectin, Mean ([3]; 10 h, mean of 5 dogs): 5.782 ng/mL
- Plasma concentrations of ivermectin ([3]; 24 h): 19192 pg/mL and 9322 pg/mL and 25996 pg/mL and 13986 pg/mL and 7730 pg/mL
- Plasma concentrations of ivermectin, Mean ([3]; 24 h, mean of 5 dogs): 15.245 ng/mL
- Plasma concentrations of ivermectin ([3]; 32 h): 21779 pg/mL and 11651 pg/mL and 28569 pg/mL and 18632 pg/mL and 11810 pg/mL
- Plasma concentrations of ivermectin, Mean ([3]; 32 h, mean of 5 dogs): 18.488 ng/mL
- Plasma concentrations of ivermectin ([3]; 48 h): 26256 pg/mL and 18359 pg/mL and 33716 pg/mL and 27200 pg/mL and 21450 pg/mL
- Plasma concentrations of ivermectin, Mean ([3]; 48 h, mean of 5 dogs): 25.396 ng/mL
- Plasma concentrations of ivermectin ([3]; 56 h): 23243 pg/mL and 18913 pg/mL and 33887 pg/mL and 20868 pg/mL and 22925 pg/mL
- Plasma concentrations of ivermectin, Mean ([3]; 56 h, mean of 5 dogs): 23.967 ng/mL
- Plasma concentrations of ivermectin ([3]; D 3): 23145 pg/mL and 23181 pg/mL and 38453 pg/mL and 22367 pg/mL and 25089 pg/mL
- Plasma concentrations of ivermectin, Mean ([3]; D 3, mean of 5 dogs): 26.447 ng/mL
- Plasma concentrations of ivermectin ([3]; D 4): 19498 pg/mL and 24875 pg/mL and 41257 pg/mL and 22550 pg/mL and 24955 pg/mL
- Plasma concentrations of ivermectin, Mean ([3]; D 4, mean of 5 dogs): 26.627 ng/mL
- Plasma concentrations of ivermectin ([3]; D 5): 13068 pg/mL and 21883 pg/mL and 28398 pg/mL and 21501 pg/mL and 21333 pg/mL
- Plasma concentrations of ivermectin, Mean ([3]; D 5, mean of 5 dogs): 21.237 ng/mL
- Plasma concentrations of ivermectin ([3]; D 7): 10892 pg/mL and 17800 pg/mL and 21415 pg/mL and 15434 pg/mL and 15695 pg/mL
- Plasma concentrations of ivermectin, Mean ([3]; D 7, mean of 5 dogs): 16.247 ng/mL
- Plasma concentrations of ivermectin ([3]; D 9): 5662 pg/mL and 12098 pg/mL and 11892 pg/mL and 10889 pg/mL and 12769 pg/mL
- Plasma concentrations of ivermectin, Mean ([3]; D 9, mean of 5 dogs): 10.662 ng/mL
- Plasma concentrations of ivermectin ([3]; D 14): 1924 pg/mL and 5269 pg/mL and 4248 pg/mL and 5752 pg/mL and 6285 pg/mL
- Plasma concentrations of ivermectin, Mean ([3]; D 14, mean of 5 dogs): 4.696 ng/mL
- Plasma concentrations of ivermectin ([3]; D 21): 162 pg/mL and 1034 pg/mL and 625 pg/mL and 746 pg/mL and 903 pg/mL
- Plasma concentrations of ivermectin, Mean ([3]; D 21, mean of 5 dogs): 0.694 ng/mL
